Measured values taken from patent publication US20120055467A1, “METERED-DOSE INHALER AND METHOD OF USING THE SAME” (CHIESI FARMACEUTICI S.P.A., priority 2010, published 2012).

Tests used:
[1] = Plume duration measured with in-line PC microphone, dual orifice actuator; assay type: physicochemical; details: Ex 8, individual can
Experimental: For Example 8, plume duration was measured using an in-line PC microphone in conjunction with Audacity 1.2.6 software.
Formulation combinations 17a-18a and 17b-18b are fired through the dual orifice actuator, as shown at 121 in FIG. 17B. Plume duration was measured for the simultaneous actuation of two 25 μL valves and two 63 μL valves and compared with plume duration for the individual cans. […] The two formulation combinations were: […]

[2] = Andersen Cascade Impactor (ACI) evaluation of pMDI spray drug delivery characteristics; assay type: physicochemical
Experimental: Spray characteristics of the system were evaluated by an Andersen cascade impactor fitted with a USP throat (App. 1, USP 33). […] This was repeated twice. Pre- and post-shot weights were recorded. […] The solutions were analysed by using a UPLC/MS (Ultra Performance Liquid Chromatography/Mass Spectrometry) system for the determination of the drug deposition.

[3] = Ex 1, Dual MDI, Formulations 1+2, single 0.22 mm actuator orifice, mean, n=3
[4] = Ex 1, Dual MDI, Formulations 1+2, single 0.30 mm actuator orifice, mean, n=3
[5] = Ex 1, Standard MDI, single can, 0.22 mm actuator orifice, mean, n=3
[6] = Ex 1, Standard MDI, single can, 0.30 mm actuator orifice, mean, n=3
[7] = Ex 2/3, Standard MDI, single can, 0.22 mm orifice, mean, n=3
[8] = Ex 2, Dual MDI, Formulations 3+4, single 0.22 mm orifice, mean, n=2
[9] = Ex 4, Dual-MDI, Formulation 6 + Formulation 7 (HFA 134a), single 0.22 mm orifice, mean, n=2
[10] = Ex 4, Standard MDI, high ethanol (26% w/w) BDP 100 μg, 0.22 mm orifice, mean, n=2
[11] = Ex 6, dual can, BDP 25 μL + BUD 100 μL, single 0.22 mm orifice, mean, n=2
[12] = Ex 6, dual can, BDP 50 μL + BUD 50 μL, single 0.22 mm orifice, mean, n=2
[13] = Ex 6, dual can, BDP 100 μL + BUD 25 μL, single 0.22 mm orifice, mean, n=2
[14] = Ex 6, single can, 50 μg dose, metered volume 25 μL, 0.22 mm actuator, mean, n=2
[15] = Ex 6, single can, 50 μg dose, metered volume 50 μL, 0.22 mm actuator, mean, n=2
[16] = Ex 6, single can, 50 μg dose, metered volume 100 μL, 0.22 mm actuator, mean, n=2
[17] = Ex 7, Dual can, Formulations 15+16 simultaneously, dual orifice actuator, mean, n=2
[18] = Ex 7, Single can through dual orifice actuator, mean, n=2
[19] = Ex 9, Dual can, Formulations 17a+18a simultaneously, dual orifice actuator, mean, n=2
[20] = Ex 9, Single can through dual orifice actuator, mean, n=2
[21] = Ex 11, Dual can single orifice, Formulations 9+12, 0.30 mm orifice, mean, n=2
[22] = Ex 11, Single reservoir conventional MDI, 50/50, 0.30 mm orifice, mean, n=2
[23] = Ex 19, dual reservoir-single orifice prototype (FIG. 14B)
[24] = Ex 20, triple reservoir-single orifice prototype (FIG. 16B)

## CCC(=O)OCC(=O)[C@@]1(OC(=O)CC)[C@@H](C)C[C@H]2[C@@H]3CCC4=CC(=O)C=C[C@]4(C)[C@@]3(Cl)[C@@H](O)C[C@@]21C [BDP, Beclometasone dipropionate]
[1]; valve size 25 μL (Formulation 18a BDP upright, 17a budesonide inverted)
  Plume duration: 0.317 s
[1]; valve size 63 μL (Formulation 18b BDP upright, 17b budesonide inverted)
  Plume duration: 0.545 s
[2]; Ex 1, Dual MDI, Formulations 1+2 (each BDP 50 μg/25 μl, 13% ethanol, 1.3% glycerol) mixed, single 0.22 mm actuator orifice, mean, n=3
  Delivered Dose: 99.3 µg
[2]; [3]
  FPD ≦ 5 μm: 44.6 µg
  FPF: 45.0%
  MMAD: 2.9 μm
[2]; [4]
  Delivered Dose: 95.6 µg
  FPD ≦ 5 μm: 27.1 µg
  FPF: 28.3%
  MMAD: 3.0 μm
[2]; Ex 1, Standard MDI, single can BDP 100 μg/50 ul, 13% ethanol, 1.3% glycerol, 0.22 mm actuator orifice, mean, n=3
  Delivered Dose: 89.8 µg
[2]; [5]
  FPD ≦ 5 μm: 41.9 µg
  FPF: 46.6%
  MMAD: 3.0 μm
[2]; [6]
  Delivered Dose: 89.1 µg
  FPD ≦ 5 μm: 26.2 µg
  FPF: 29.4%
  MMAD: 3.3 μm
[2]; Ex 2/3, Standard MDI, single can (BDP 100 μg/50 μl or formoterol fumarate 6 μg/50 μl), 0.22 mm orifice, mean, n=3
  Delivered Dose: 99.3 µg
[2]; [7]
  FPD ≦ 5 μm: 44.6 µg
  FPF: 45.0%
  MMAD: 2.9 μm
[2]; Ex 2, Dual MDI, Formulation 3 (formoterol fumarate 6 μg/25 μl) + Formulation 4 (BDP 100 μg/25 μl, glycerol) mixed, single 0.22 mm orifice, mean, n=2
  Delivered Dose: 97.9 µg
[2]; [8]
  FPD ≦ 5 μm: 52.5 µg
  FPF: 53.6%
  MMAD: 2.5 μm
[2]; Ex 4, Dual-MDI, Formulation 6 (BDP 100 μg/25 μl, 26% ethanol) + Formulation 7 (100% HFA 134a, 25 μl), single 0.22 mm orifice, mean, n=2
  Delivered Dose: 86.4 µg
[2]; [9]
  FPD ≦ 5 μm: 41.1 µg
  FPF: 47.5%
  MMAD: 2.7 μm
[2]; [10]
  FPD ≦ 5 μm: 26.7 µg
  FPF: 26.5%
  MMAD: 3.5 μm
[2]; Ex 4, Standard MDI, single can BDP 100 μg/25 μl, 26% w/w ethanol, 1.3% glycerol, 0.22 mm orifice, mean, n=2
  Delivered Dose: 100.6 µg
[2]; [11]
  Delivered Dose: 49.4 µg
  FPD ≦ 5 μm: 18.5 µg
  FPF: 37.3%
  MMAD: 2.6 μm
[2]; [12]
  Delivered Dose: 38.2 µg
  FPD ≦ 5 μm: 16.8 µg
  FPF: 44.1%
  MMAD: 1.9 μm
[2]; [13]
  Delivered Dose: 45.5 µg
  FPD ≦ 5 μm: 18.6 µg
  FPF: 40.8%
  MMAD: 1.8 μm
[2]; Ex 6, single can configuration, 0.22 mm actuator, across metered volumes 25-100 μL
  MMAD: 1.1-1.2 μm
[2]; Ex 6, single can, 50 μg dose, metered volume 25 μL (Formulation 9 / 12), 0.22 mm actuator, mean, n=2
  Delivered Dose: 52.0 µg
[2]; [14]
  FPD ≦ 5 μm: 31.1 µg
  FPF: 59.8%
  MMAD: 1.2 μm
[2]; Ex 6, single can, 50 μg dose, metered volume 50 μL (Formulation 10 / 13), 0.22 mm actuator, mean, n=2
  Delivered Dose: 45.6 µg
[2]; [15]
  FPD ≦ 5 μm: 24.7 µg
  FPF: 54.0%
  MMAD: 1.2 μm
[2]; Ex 6, single can, 50 μg dose, metered volume 100 μL (Formulation 11 / 14), 0.22 mm actuator, mean, n=2
  Delivered Dose: 48.8 µg
[2]; [16]
  FPD ≦ 5 μm: 19.2 µg
  FPF: 39.4%
  MMAD: 1.1 μm
[2]; Ex 7, Dual can, Formulations 15+16 (both with glycerol, 50 μg/25 μl) fired simultaneously through dual orifice actuator (0.22 mm), mean, n=2
  Delivered Dose: 41.5 µg
[2]; [17]
  FPD ≦ 5 μm: 12.7 µg
  FPF: 30.6%
  MMAD: 2.5 μm
[2]; [18]
  FPD ≦ 5 μm: 17.0 µg
  FPF: 47.2%
  MMAD: 2.3 μm
[2]; Ex 7, Single can, fired individually through dual orifice actuator (0.22 mm), Formulation 15 inverted, Formulation 16 upright, mean, n=2
  Delivered Dose: 36.0 µg
[2]; Ex 9, Dual can, Formulation 17a (budesonide, glycerol) + 18a (BDP, no glycerol) simultaneously through dual orifice actuator, mean, n=2
  Delivered Dose: 40.8 µg
[2]; [19]
  FPD ≦ 5 μm: 12.7 µg
  FPF: 31.1%
  MMAD: 1.5 μm
[2]; [20]
  FPD ≦ 5 μm: 16.2 µg
  FPF: 55.8%
  MMAD: 0.9 μm
[2]; Ex 9, Single can, fired individually through dual orifice actuator, Formulation 17a inverted, 18a upright (50 μg/25 μL), mean, n=2
  Delivered Dose: 29.1 µg
[2]; Ex 11, Dual can single orifice, Formulation 9 (BDP 50/25) + Formulation 12 (budesonide 50/25, glycerol), 0.30 mm orifice, mean, n=2
  Metered Dose: 59.5 µg
[2]; [21]
  Delivered Dose: 55.2 µg
  FPD: 16.3 µg
  FPF: 29.5%
  MMAD: 2.8 μm
[2]; Ex 11, Single reservoir conventional MDI, 50 μg/50 μl (Formulation 10 / 13), 0.30 mm orifice, mean, n=2
  Metered Dose: 52.7 µg
[2]; [22]
  Delivered Dose: 47.1 µg
  FPD: 16.6 µg
  FPF: 35.2%
  MMAD: 1.3 μm
[2]; Ex 13, BDP formulation 25 μl delivered simultaneously with 100 μl budesonide formulation (glycerol), single 0.30 mm orifice
  MMAD: 3.1 μm
[2]; Ex 13, conventional single reservoir MDI, 0.30 mm orifice
  MMAD: 1.2 μm
[2]; Ex 14a/15, comparative, conventional single reservoir MDI, 0.22 mm orifice, 50 μl valves
  MMAD: 1.3 μm
[2]; Ex 14a/15, dual reservoir-dual orifice, impingement angle 60°, orifice diameter 0.25 mm, separation distance 6.0 mm
  MMAD: 2.3 μm
[2]; Ex 14a, 15° impingement, 6.0 mm separation, stated comparable to the standard actuator
  actuator deposition: 6.1 µg
[2]; Ex 14a, dual reservoir-dual orifice, Formulations 9+12, impingement angle 60°, orifice diameter 0.25 mm, separation distance 17.5 mm
  MMAD: 2.0 μm
[2]; Ex 14a, dual reservoir-dual orifice, impingement angle 15°, orifice diameter 0.25 mm, separation distance 6.0 mm
  MMAD: 1.8 μm
[2]; Ex 14a, dual reservoir-dual orifice, impingement angle 60°, orifice diameter 0.25 mm, separation distance 9.0 mm
  MMAD: 2.1 μm
[2]; Ex 14a, dual reservoir-dual orifice, impingement angle 60°, orifice diameter 0.30 mm, separation distance 2.0 mm
  MMAD: 1.9 μm
[2]; Ex 15, dual reservoir, Formulations 9+12 through a single 0.30 mm diameter orifice
  MMAD: 2.8 μm
[2]; [23]
  Delivered Dose: 67.6 µg
  FPD: 30.2 µg
  FPF: 44.7%
  MMAD: 1.3 μm
[2]; Ex 19, dual reservoir-single orifice prototype (FIG. 14B), BDP/Formoterol 100/6 μg/25 μl + glycopyrronium bromide 12.5 μg/25 μl
  Metered Dose: 92.8 µg
[2]; [24]
  Delivered Dose: 60.8 µg
  FPD: 21.2 µg
  FPF: 34.9%
  MMAD: 1.4 μm
[2]; Ex 20, triple reservoir-single orifice prototype (FIG. 16B), BDP/Formoterol + glycopyrronium bromide + budesonide 50 μg/25 μl
  Metered Dose: 85.9 µg
